What was measured:
[1] = In vitro stability (enantiomerization, D/H exchange) in human plasma at 37° C.; type: in vitro ADME; details: up to 32 h
Experimental: (§1) The plasma samples were incubated at 37° C. in duplicate (anticoagulant: K3EDTA). […] Samples were placed at −80° C. until the study was complete. […] The vortexed samples were centrifuged and 50 μL of supernatant was dispensed in a 96-well plate.
(§2) The deuterium in both enantiomers, d-S and d-R, can be lost by D/H exchange to give both protonated enantiomers, h-S and h-R with rate constants kDRR, kDRS, kDSR, and kDSS. At the same time, the protonated enantiomers h-S and h-R can exchange with enantiomerization rate constants kRS and kSR. All four compounds can also degrade with potentially different degradation rate constants kdSd, kdRd, khSd, and khRd.
(§3) Human and mouse plasma data were analyzed independently. […] Data in each species was analyzed using a stepwise approach.
(§4) The step between calculated time points was minimized in order to minimize the local error (proportional to the square of the step size) and the global error (proportional to the step size).

[2] = system: C2C12 cells; details: 30 μM for 15, 30, or 90 min; 10 mM sodium pyruvate
Experimental: On the day before the assay, C2C12 cells were subcultured in XF96 microplates at a density of 20,000 cells per well. After overnight incubation (37° C., 5% CO2), the cells were washed 3 times with assay medium (Seahorse medium (Seahorse Bioscience, North Billerica, Mass.) containing 10 mM sodium pyruvate, pH 7.4). […] Incubation times of 15, 30, or 90 min were used prior to measurement of maximal respiration, i.e., until addition of FCCP. […] Maximal respiration as oxygen consumption rates (pmoles O2/min) was measured for each compound, at each concentration, and each time point in three separate experiments.

[3] = target: T1, human recombinant monoamine oxidase B (Homo sapiens, UniProt P27338); assay: Monoamine oxidase B (MAO-B) inhibition, luminescence assay; type: biochemical
T1 sequence (P27338 1-520): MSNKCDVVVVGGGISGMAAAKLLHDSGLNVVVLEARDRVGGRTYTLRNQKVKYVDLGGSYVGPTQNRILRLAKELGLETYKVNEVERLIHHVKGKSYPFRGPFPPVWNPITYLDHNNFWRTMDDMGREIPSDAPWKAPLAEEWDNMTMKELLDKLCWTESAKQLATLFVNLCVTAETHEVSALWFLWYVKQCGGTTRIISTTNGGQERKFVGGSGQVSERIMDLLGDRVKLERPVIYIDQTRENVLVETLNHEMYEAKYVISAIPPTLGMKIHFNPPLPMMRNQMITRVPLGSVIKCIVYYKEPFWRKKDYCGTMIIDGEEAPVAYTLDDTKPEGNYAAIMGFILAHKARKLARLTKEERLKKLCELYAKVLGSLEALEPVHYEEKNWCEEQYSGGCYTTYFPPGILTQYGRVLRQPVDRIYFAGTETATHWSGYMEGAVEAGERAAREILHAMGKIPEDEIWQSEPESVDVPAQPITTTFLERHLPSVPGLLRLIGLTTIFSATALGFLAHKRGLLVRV
Experimental: The mixtures were incubated at 22° C. for 5 min. Substrate (D-luciferin derivative) was added, and then the mixture was incubated at 37° C. for 60 min. The reaction was stopped by addition of the detection reagent containing luciferase. Luminescence was read after standing for 60 min at room temperature.
Results were expressed as a percentage of the luminescence of the control (enzyme+substrate). IC50 values were obtained by fitting experimental data (mean % luminescence as function of concentration) to the Hill equation with variable slope using non-linear regression analysis.

[4] = In vitro plasma stability, half-life of deuterated vs. protonated enantiomers (plasma species not given); type: in vitro ADME; details: 37° C., t1/2=ln(2)/k from fitted rate constants
Experimental: as §1, §2, §3, §4

[5] = In vitro stability (enantiomerization, D/H exchange) in C57BL/6 mouse plasma at 37° C.; type: in vitro ADME; details: up to 32 h
Experimental: as §1, §2, §3, §4

| Structure (SMILES) | degradation (sum of peak areas vs. incubation time) [1] | maximal respiration as oxygen consumption rate (OCR) vs. vehicle-treated cells [2] | difference in inhibition efficacy between d-R-pio and d-S-pio [3] | half-life of deuterated enantiomer vs. corresponding protonated enantiomer [4] | degradation (sum of peak areas vs. incubation time) [5] |
| --- | --- | --- | --- | --- | --- |
| [2H][C@]1(Cc2ccc(OCCc3ccc(CC)cn3)cc2)SC(=O)NC1=O [d-R-pio, (R)-5-({p-[2-(5-Ethyl-2-pyridyl)ethoxy]phenyl}methyl)-(5-^2H)-1,3-thiazolidine-2,4-dione] | negligible | inhibited maximal respiration | greater than 5 fold | approximately two-fold | negligible |
| [2H][C@@]1(Cc2ccc(OCCc3ccc(CC)cn3)cc2)SC(=O)NC1=O [d-S-pio, (S)-5-({p-[2-(5-Ethyl-2-pyridyl)ethoxy]phenyl}methyl)-(5-^2H)-1,3-thiazolidine-2,4-dione] | negligible | no significant measurable effect | – | approximately the same as the half-life for h-S-pio | negligible |
| CCc1ccc(CCOc2ccc(C[C@H]3SC(=O)NC3=O)cc2)nc1 [h-R-pio, (R)-5-({p-[2-(5-ethyl-2-pyridyl)ethoxy]phenyl}methyl)-1,3-thiazolidine-2,4-dione, reference compound] | negligible | – | – | – | negligible |
| CCc1ccc(CCOc2ccc(C[C@@H]3SC(=O)NC3=O)cc2)nc1 [h-S-pio, (S)-5-({p-[2-(5-ethyl-2-pyridyl)ethoxy]phenyl}methyl)-1,3-thiazolidine-2,4-dione, reference compound] | negligible | – | – | – | negligible |
| CCc1ccc(CCOc2ccc(CC3SC(=O)NC3=O)cc2)nc1 (racemic) [h-rac-pio, rac-5-({p-[2-(5-Ethyl-2-pyridyl)ethoxy]phenyl}methyl)-1,3-thiazolidine-2,4-dione, reference compound] | – | inhibited maximal respiration | – | – | – |

From patent US20180125834A1, “METHODS OF TREATING BACTERIAL INFECTIONS AND FUNGAL INFECTIONS USING ENANTIOPURE DEUTERIUM-ENRICHED PIOGLITAZONE” (DeuteRx, LLC, priority 2015, published 2018)
